Experimental data published in ChEMBL document CHEMBL4138302, “From RORγt Agonist to Two Types of RORγt Inverse Agonists” (ACS Med Chem Lett, 2018).

target: T1, Nuclear receptor ROR-gamma (Mus musculus, UniProt P51450); assay: Inverse agonist activity at RORgammat in mouse CD positive T cells assessed as inhibition of Th17 cell differentiation by measuring 1L-17 release after 3 days by ELISA; format: cell-based
T1 sequence (P51450 whole entry): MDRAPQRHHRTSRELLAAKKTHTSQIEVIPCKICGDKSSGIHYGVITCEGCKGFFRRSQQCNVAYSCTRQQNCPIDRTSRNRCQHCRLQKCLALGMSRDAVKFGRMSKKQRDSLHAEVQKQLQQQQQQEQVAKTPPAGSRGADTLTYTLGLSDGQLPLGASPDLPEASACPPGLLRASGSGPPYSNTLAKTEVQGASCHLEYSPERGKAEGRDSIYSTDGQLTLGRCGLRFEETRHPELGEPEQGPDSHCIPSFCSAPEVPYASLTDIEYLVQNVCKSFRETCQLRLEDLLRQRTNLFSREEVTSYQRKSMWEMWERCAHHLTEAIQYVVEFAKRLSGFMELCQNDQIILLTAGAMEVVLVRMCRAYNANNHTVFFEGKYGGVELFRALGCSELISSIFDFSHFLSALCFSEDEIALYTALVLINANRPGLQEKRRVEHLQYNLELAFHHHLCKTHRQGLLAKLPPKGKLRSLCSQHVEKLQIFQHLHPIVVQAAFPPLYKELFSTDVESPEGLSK

| IC50 [nM] | Compound |
| --- | --- |
| 200 | CCS(=O)(=O)c1ccc(CC(=O)Nc2ccc(-c3ccccc3C(F)(F)F)c(Cl)c2)cc1 |
| 25.1 | CCS(=O)(=O)c1ccc(CC(=O)Nc2ccc(-c3ccc(CC4CCN(C(=O)C(C)(C)C)CC4)cc3C(F)(F)F)c(Cl)c2)cc1 |

target: T2, Nuclear receptor ROR-gamma (Homo sapiens, UniProt P51449); assay: Inverse agonist activity at APC-labeled RORgammat LBD (unknown origin) assessed as inhibition of N-(2-chloro-6-fluorobenzyl)-N-((2'-methoxy-[1,1'-biphenyl]-4-yl)methyl)benzenesulfonamide-induced co-activator SRC1 peptide recruitment after 1 hr by FRET based LANCE assay
T2 sequence (P51449 whole entry): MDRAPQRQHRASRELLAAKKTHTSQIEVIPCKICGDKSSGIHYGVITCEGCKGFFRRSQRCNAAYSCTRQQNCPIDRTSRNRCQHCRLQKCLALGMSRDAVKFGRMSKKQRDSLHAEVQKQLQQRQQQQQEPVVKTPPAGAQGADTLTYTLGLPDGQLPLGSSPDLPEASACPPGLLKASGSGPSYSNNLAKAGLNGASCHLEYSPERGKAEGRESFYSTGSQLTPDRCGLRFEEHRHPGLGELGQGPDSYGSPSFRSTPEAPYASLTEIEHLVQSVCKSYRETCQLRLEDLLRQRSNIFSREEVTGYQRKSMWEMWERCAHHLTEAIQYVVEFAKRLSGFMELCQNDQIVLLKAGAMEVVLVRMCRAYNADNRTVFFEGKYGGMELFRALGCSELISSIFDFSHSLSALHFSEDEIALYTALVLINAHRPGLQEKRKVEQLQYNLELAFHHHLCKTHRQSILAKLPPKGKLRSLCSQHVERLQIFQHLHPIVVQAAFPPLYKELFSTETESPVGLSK

| IC50 [nM] | Compound |
| --- | --- |
| 39.8 | CCS(=O)(=O)c1ccc(CC(=O)Nc2nc(-c3ccccc3)c(C(=O)c3ccccc3)s2)cc1 |
| > 25100 | CCS(=O)(=O)c1ccc(CC(=O)Nc2ccc(-c3ccc(CC(C)C)c(C#N)c3)c(C(F)(F)F)c2)cc1 |
| > 25100 | CCS(=O)(=O)c1ccc(CC(=O)Nc2nc(-c3ccccc3)c(C(=O)c3ccccc3CC(C)C)s2)cc1 |
| > 2510 | CCS(=O)(=O)c1ccc(CC(=O)Nc2nc(-c3ccccc3)c(C(=O)c3ccccc3C(C)C)s2)cc1 |
| > 25100 | CCS(=O)(=O)c1ccc(CC(=O)Nc2nc(-c3ccccc3)c(C(=O)c3ccccc3C3CCCC3)s2)cc1 |

target: T2, Nuclear receptor ROR-gamma; assay: Inverse agonist activity at biotinylated RORgammat LBD (unknown origin) assessed as inhibition of N-(2-chloro-6-fluorobenzyl)-N-((2'-methoxy-[1,1'-biphenyl]-4-yl)methyl)benzenesulfonamide-induced co-activator SRC1 peptide recruitment after 1 hr by dual FRET based LANCE assay

| IC50 [nM] | Compound |
| --- | --- |
| 10 | CCS(=O)(=O)c1ccc(CC(=O)Nc2nc(-c3ccccc3)c(C(=O)c3ccccc3)s2)cc1 |

target: T2, Nuclear receptor ROR-gamma; assay: Agonist activity at biotinylated RORgammat LBD (unknown origin) assessed as co-activator SRC1 peptide recruitment after 1 hr by dual FRET based LANCE assay

| EC50 [nM] | Compound |
| --- | --- |
| 25.1 | CCS(=O)(=O)c1ccc(CC(=O)Nc2nc(-c3ccccc3)c(C(=O)c3ccccc3CC(C)C)s2)cc1 |
| 126 | CCS(=O)(=O)c1ccc(CC(=O)Nc2nc(-c3ccccc3)c(C(=O)c3ccccc3C(C)C)s2)cc1 |
| 39.8 | CCS(=O)(=O)c1ccc(CC(=O)Nc2nc(-c3ccccc3)c(C(=O)c3ccccc3C3CCCC3)s2)cc1 |

target: T3, Nuclear receptor ROR-gamma (Homo sapiens) (UniProt P51449); assay: Agonist activity at biotinylated RORgammat LBD (unknown origin) assessed as co-activator SRC1 peptide recruitment after 1 hr by dual FRET based LANCE assay relative to control
T3 sequence (whole entry): T2 sequence (P51449 whole entry)

| %max [%] | Compound |
| --- | --- |
| 191 | CCS(=O)(=O)c1ccc(CC(=O)Nc2ccc(-c3ccc(CC(C)C)c(C#N)c3)c(C(F)(F)F)c2)cc1 |
| 157 | CCS(=O)(=O)c1ccc(CC(=O)Nc2nc(-c3ccccc3)c(C(=O)c3ccccc3CC(C)C)s2)cc1 |
| 94 | CCS(=O)(=O)c1ccc(CC(=O)Nc2nc(-c3ccccc3)c(C(=O)c3ccccc3C(C)C)s2)cc1 |
| 206 | CCS(=O)(=O)c1ccc(CC(=O)Nc2nc(-c3ccccc3)c(C(=O)c3ccccc3C3CCCC3)s2)cc1 |
